Measured values from patent US12344623B2, “Thiazolopyridine derivatives as adenosine receptor antagonists” (Merck Patent GmbH, priority 2019, dated 2025).
Where two headings read alike, the source gives them in different places.

Columns and labels:
Assay type in all cases: cell-based
human A2B receptor = molecular target: T1, human A2B receptor (Homo sapiens, UniProt P29275); assay: Functional A2B receptor activity, recombinant HEK293 cells, cAMP (HTRF), agonist NECA
T1 construct: expressed in transfected cells; host or cells: HEK293
T1 sequence (P29275 1-332): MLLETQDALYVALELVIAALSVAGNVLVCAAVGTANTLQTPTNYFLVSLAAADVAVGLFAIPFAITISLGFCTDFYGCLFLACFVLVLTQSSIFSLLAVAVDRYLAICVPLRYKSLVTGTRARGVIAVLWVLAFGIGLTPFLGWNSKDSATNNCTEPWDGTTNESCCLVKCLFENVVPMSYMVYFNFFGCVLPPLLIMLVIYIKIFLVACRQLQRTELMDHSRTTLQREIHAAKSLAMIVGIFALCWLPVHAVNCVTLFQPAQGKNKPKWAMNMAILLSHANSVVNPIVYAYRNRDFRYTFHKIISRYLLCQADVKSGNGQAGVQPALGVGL
Procedure: (§1) The functional activities of human A2A, A2B, A1 and A3 receptors were determined by quantification of cAMP, being the second messenger for adenosine receptors.
(§2) Cells were seeded into 384-well plates, forskolin, test compounds and agonists (CPA for A1- and IB-MECA for A3-receptor) were added. After 30 min incubation, HTRF reagents (cAMP dynamic 2, Cis Bio) were added and the cellular cAMP levels were determined using the ENVISION (Perkin Elmer) plate reader. Obtained raw data were normalized against the inhibitor control and the neural control (DMSO) and the normalized data were fitted using GeneData software.

human A1 receptor = molecular target: T2, human A1 receptor (Homo sapiens, UniProt P30542); assay: Functional A1 receptor activity, recombinant CHO cells, cAMP (HTRF), forskolin, agonist CPA
T2 construct: expressed in transfected cells; host or cells: CHO
T2 sequence (P30542 1-326): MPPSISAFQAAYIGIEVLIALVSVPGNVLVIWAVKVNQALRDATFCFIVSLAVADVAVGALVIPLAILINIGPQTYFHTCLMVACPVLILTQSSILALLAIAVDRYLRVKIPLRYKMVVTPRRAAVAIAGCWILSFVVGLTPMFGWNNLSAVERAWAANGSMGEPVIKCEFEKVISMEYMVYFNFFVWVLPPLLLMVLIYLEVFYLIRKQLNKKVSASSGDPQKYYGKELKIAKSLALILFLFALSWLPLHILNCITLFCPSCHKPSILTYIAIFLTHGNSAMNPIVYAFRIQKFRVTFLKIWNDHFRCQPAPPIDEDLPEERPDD
Procedure: as §1
(§3) For human A1 and A3 receptors, recombinant CHO cells, expressing either A1 or A3-receptor, were used. As both receptors couple to Gi proteins, the assay protocol was adapted:
as §2

human A3 receptor = molecular target: T3, human A3 receptor (Homo sapiens, UniProt P0DMS8); assay: Functional A3 receptor activity, recombinant CHO cells, cAMP (HTRF), forskolin, agonist IB-MECA
T3 construct: expressed in transfected cells; host or cells: CHO
T3 sequence (P0DMS8 1-318): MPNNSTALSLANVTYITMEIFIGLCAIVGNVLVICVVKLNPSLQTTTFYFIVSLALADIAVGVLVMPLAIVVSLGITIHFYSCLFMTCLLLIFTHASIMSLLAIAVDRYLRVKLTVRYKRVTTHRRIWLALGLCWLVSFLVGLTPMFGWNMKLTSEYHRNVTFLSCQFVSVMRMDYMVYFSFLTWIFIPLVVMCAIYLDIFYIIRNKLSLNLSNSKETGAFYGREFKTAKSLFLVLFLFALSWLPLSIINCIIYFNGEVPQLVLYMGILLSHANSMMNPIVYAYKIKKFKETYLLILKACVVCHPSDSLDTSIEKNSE
Procedure: as §1, §3, §2

human A2A receptor = human A2A receptor (Homo sapiens, UniProt P29274); assay: Functional A2A receptor activity, recombinant HEK293 cells, cAMP (HTRF), agonist NECA; set-up: expressed in transfected cells; host or cells: HEK293
Procedure: as §1, §2

[1] = read-out: Functional A2B receptor activity, HEK293, cAMP, IC50
[2] = recombinant CHO cells, forskolin, agonist CPA, read-out: Functional A1 receptor activity, CHO, cAMP, IC50
[3] = recombinant CHO cells, forskolin, agonist IB-MECA, read-out: Functional A3 receptor activity, CHO, cAMP, IC50
[4] = read-out: Functional A2A receptor activity, HEK293, cAMP, IC50

human A2A receptor, sequence (P29274 whole entry): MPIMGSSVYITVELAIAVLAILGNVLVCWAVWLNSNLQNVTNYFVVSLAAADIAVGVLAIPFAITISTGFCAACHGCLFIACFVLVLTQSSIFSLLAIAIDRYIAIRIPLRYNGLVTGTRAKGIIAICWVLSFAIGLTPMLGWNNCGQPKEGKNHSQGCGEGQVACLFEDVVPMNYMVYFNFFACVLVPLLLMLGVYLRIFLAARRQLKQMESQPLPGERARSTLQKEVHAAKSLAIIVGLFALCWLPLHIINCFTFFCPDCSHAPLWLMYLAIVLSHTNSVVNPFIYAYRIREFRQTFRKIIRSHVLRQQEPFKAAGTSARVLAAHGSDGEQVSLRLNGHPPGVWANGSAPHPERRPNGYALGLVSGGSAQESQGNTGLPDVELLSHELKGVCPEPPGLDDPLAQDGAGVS

| Structure (SMILES) | IC50 (human A2B receptor; [1]) | IC50 (human A1 receptor; [2]) | IC50 (human A3 receptor; [3]) | IC50 (human A2A receptor; [4]) | IC50 (human A1 receptor; recombinant CHO cells, forskolin, agonist CPA, cAMP, read-out: Functional A1 receptor activity, CHO, cAMP, IC50) | IC50 (human A3 receptor; recombinant CHO cells, forskolin, agonist IB-MECA, cAMP, read-out: Functional A3 receptor activity, CHO, cAMP, IC50) | IC50 (human A2B receptor) | IC50 (human A1 receptor) | IC50 (human A3 receptor) | IC50 (human A2A receptor) |
| --- | --- | --- | --- | --- | --- | --- | --- | --- | --- | --- |
| COc1ncc(-c2ccccc2)c2sc(NC(=O)c3ccc(-c4nnn[nH]4)cc3)nc12 [Compound 110, N-{4-methoxy-7-phenyl-[1,3]thiazolo[4,5-c]pyridin-2-yl}-4-(1H-1,2,3,4-tetrazol-5-yl)benzamide] | < 100 nM | > 1000 nM | > 1000 nM | < 10 nM | – | – | – | – | – | – |
| COc1ncc(-c2ccc(=O)[nH]c2)c2sc(NC(=O)N3CCC4(CCOCC4)C3)nc12 [Compound 78, 8-Oxa-2-aza-spiro[4.5]decane-2-carboxylic acid [4-methoxy-7-(6-oxo-1,6-dihydro-pyridin-3-yl)-thiazolo[4,5-c]pyridin-2-yl]-amide] | < 1000 nM | > 1000 nM | > 1000 nM | < 10 nM | – | – | – | – | – | – |
| COc1ncc(C2=CCOCC2)c2sc(NC(=O)N3CC[C@@]4(CCCNC4)C3)nc12 [Compound 121, (R)-2,7-Diaza-spiro[4.5]decane-2-carboxylic acid [7-(3,6-dihydro-2H-pyran-4-yl)-4-methoxy-thiazolo[4,5-c]pyridin-2-yl]-amide] | < 100 nM | > 1000 nM | > 1000 nM | < 10 nM | – | – | – | – | – | – |
| COc1ccc(-c2ccccc2)c2sc(NC(=O)NCCN3CCCCC3)nc12 [drawing 187, reference compound] | > 1000 nM | – | – | < 100 nM | > 1000 nM | > 1000 nM | – | – | – | – |
| COc1nc(F)c(N2CCOCC2)c2sc(NC(=O)N3CCC4(CCOC4)C3)nc12 (centres unmarked) [Compound 16, N-[6-fluoro-4-methoxy-7-(morpholin-4-yl)-[1,3]thiazolo[4,5-c]pyridin-2-yl]-2-oxa-7-azaspiro[4.4]nonane-7-carboxamide] | < 100 nM | > 1000 nM | > 1000 nM | < 10 nM | – | – | – | – | – | – |
| COc1ncc(C2=CCOCC2)c2sc(NC(=O)c3ccc(Cn4ccnc4)cc3)nc12 [Compound 82, N-[7-(3,6-dihydro-2H-pyran-4-yl)-4-methoxy-[1,3]thiazolo[4,5-c]pyridin-2-yl]-4-[(1H-imidazol-1-yl)methyl]benzamide] | < 10 nM | < 100 nM | > 1000 nM | < 10 nM | – | – | – | – | – | – |
| COc1ncc(C2=CCOCC2)c2sc(NC(=O)N3CC[C@]4(CCCNC4)C3)nc12 [Compound 122, (S)-2,7-Diaza-spiro[4.5]decane-2-carboxylic acid [7-(3,6-dihydro-2H-pyran-4-yl)-4-methoxy-thiazolo[4,5-c]pyridin-2-yl]-amide] | < 100 nM | > 1000 nM | > 1000 nM | < 10 nM | – | – | – | – | – | – |
| COc1ncc(C2=CCOCC2)c2sc(NC(=O)c3cnn(-c4ccccc4)c3)nc12 [Compound 156, 1-Phenyl-1H-pyrazole-4-carboxylic acid [7-(3,6-dihydro-2H-pyran-4-yl)-4-methoxy-thiazolo[4,5-c]pyridin-2-yl]-amide] | < 10 nM | < 1000 nM | > 1000 nM | < 10 nM | – | – | – | – | – | – |
| COc1ncc(-c2cc(O)ccc2F)c2sc(NC(=O)N3CCC4(CCOCC4)C3)nc12 [Compound 150, 8-Oxa-2-aza-spiro[4.5]decane-2-carboxylic acid [7-(2-fluoro-5-hydroxy-phenyl)-4-methoxy-thiazolo[4,5-c]pyridin-2-yl]-amide] | < 100 nM | > 1000 nM | > 1000 nM | < 10 nM | – | – | – | – | – | – |
| COc1ncc(-c2cnn(Cc3ccccc3)c2)c2sc(NC(=O)N3CCC4(CCOCC4)C3)nc12 [Compound 76, 8-Oxa-2-aza-spiro[4.5]decane-2-carboxylic acid [7-(1-benzyl-1H-pyrazol-4-yl)-4-methoxy-thiazolo[4,5-c]pyridin-2-yl]-amide] | < 10 nM | < 100 nM | > 1000 nM | < 10 nM | – | – | – | – | – | – |
| COc1ncc(C2=CCOCC2)c2sc(NC(=O)c3ccc([C@@H](C)NC(C)=O)cc3)nc12 [Compound 83, N-[7-(3,6-dihydro-2H-pyran-4-yl)-4-methoxy-[1,3]thiazolo[4,5-c]pyridin-2-yl]-4-[(1R)-1-acetamidoethyl]benzamide] | < 10 nM | < 1000 nM | > 1000 nM | < 10 nM | – | – | – | – | – | – |
| COc1ncc(C2CCC(F)(F)CC2)c2sc(NC(=O)N3CCC4(CCOCC4)C3)nc12 [Compound 111, 8-Oxa-2-aza-spiro[4.5]decane-2-carboxylic acid [7-(4,4-difluoro-cyclohexyl)-4-methoxy-thiazolo[4,5-c]pyridin-2-yl]-amide] | < 100 nM | < 1000 nM | > 1000 nM | < 10 nM | – | – | – | – | – | – |
| COc1ncc(-c2cccc(O)c2)c2sc(NC(=O)N3CCC4(CCOCC4)C3)nc12 [Compound 153, 8-Oxa-2-aza-spiro[4.5]decane-2-carboxylic acid [7-(3-hydroxy-phenyl)-4-methoxy-thiazolo[4,5-c]pyridin-2-yl]-amide] | < 10 nM | < 1000 nM | > 1000 nM | < 10 nM | – | – | – | – | – | – |
| COc1ncc(-c2cccc(Oc3cccnc3)c2)c2sc(NC(=O)N3CCC4(CCOCC4)C3)nc12 [Compound 160, 8-Oxa-2-aza-spiro[4.5]decane-2-carboxylic acid {4-methoxy-7-[3-(pyridin-3-yloxy)-phenyl]-thiazolo[4,5-c]pyridin-2-yl}-amide] | < 10 nM | < 1000 nM | > 1000 nM | < 10 nM | – | – | – | – | – | – |
| COc1ncc(C2=CCOCC2)c2sc(NC(=O)c3cnc4ccccn34)nc12 [Compound 135, Imidazo[1,2-a]pyridine-3-carboxylic acid [7-(3,6-dihydro-2H-pyran-4-yl)-4-methoxy-thiazolo[4,5-c]pyridin-2-yl]-amide] | < 10 nM | < 1000 nM | < 1000 nM | < 10 nM | – | – | – | – | – | – |
| COc1ncc(-c2ccc(F)c(O)c2)c2sc(NC(=O)N3CCC4(CCOCC4)C3)nc12 [Compound 149, 8-Oxa-2-aza-spiro[4.5]decane-2-carboxylic acid [7-(4-fluoro-3-hydroxy-phenyl)-4-methoxy-thiazolo[4,5-c]pyridin-2-yl]-amide] | < 10 nM | < 1000 nM | > 1000 nM | < 10 nM | – | – | – | – | – | – |
| COc1ncc(C2=CCSCC2)c2sc(NC(=O)N3CCC4(CCOCC4)C3)nc12 [Compound 64, 8-Oxa-2-aza-spiro[4.5]decane-2-carboxylic acid [7-(3,6-dihydro-2H-thiopyran-4-yl)-4-methoxy-thiazolo[4,5-c]pyridin-2-yl]-amide] | < 10 nM | < 1000 nM | > 1000 nM | < 10 nM | – | – | – | – | – | – |
| COc1ncc(C2COCCO2)c2sc(NC(=O)N3CCC4(CCOCC4)C3)nc12 (centres unmarked) [Compound 73, 8-Oxa-2-aza-spiro[4.5]decane-2-carboxylic acid (7-[1,4]dioxan-2-yl-4-methoxy-thiazolo[4,5-c]pyridin-2-yl)-amide] | < 100 nM | > 1000 nM | > 1000 nM | < 10 nM | – | – | – | – | – | – |
| COc1ccc(C2CCOCC2)c2sc(NC(=O)N3CCC4(CC3)OCCO4)nc12 [reference compound] | – | – | – | – | – | – | < 1000 nM | > 1000 nM | > 1000 nM | < 10 nM |
| COc1nc(F)c(-c2ccccc2)c2sc(NC(=O)c3c[nH]cn3)nc12 [Compound 32, 1H-Imidazole-4-carboxylic acid (6-fluoro-4-methoxy-7-phenyl-thiazolo[4,5-c]pyridin-2-yl)-amide] | < 10 nM | < 100 nM | > 1000 nM | < 10 nM | – | – | – | – | – | – |
